Legend:
[1] = system: Escherichia coli (mouse-adapted strain 4300); assay: animal or person; assay type: in vivo, mice; details: for Mortality rate (%) / Survival rate (%): tenth day
Description: Escherichia coli (mouse-adaptedstrain 4300, Institute collection) was used as an infectious agent. Mice were infected intravenously.
Firstly, there were determined a lethal dose (LD100) of Escherichia coli to be intravenously administered to this line of mice with a certain weight. Fatal cases among mice were registered every day for ten days. […] For this purpose, mice were housed into cages (10 animals per cage) and infected with a lethal dose of Escherichia coli. One hour after each mouse was administered orally levofloxacin in doses of 1, 2, 4, 6, 8, 10, and 12 mg/kg. A group of mice infected with a lethal dose of Escherichia coli without the treatment was considered as a control group. Fatal cases among mice were registered every day for ten days.
The next step of the experiment was to study an effect of combined administration of glutaryl histamine and levofloxacin on a model of E. coli sepsis in mice.
(§1) In the experiment, mice were housed in following groups (10 animals per cage):
Glutaryl histamine was administered orally in the corresponding doses to mice of groups 3, 4, 5, 6, 7, and 8 for 5 days. Five day after, all groups of mice were intravenously administered 0.2 ml of Escherichia coli in the lethal dose. […] After infection and administration of levofloxacin, glutaryl histamine was administered to mice of groups 3-8 for additional 5 days. During the experiment, the animals were observed every day, and fatal cases were registered (see Table 14).

[2] = system: Staphylococcus aureus (mouse-adapted strain 10); assay: animal or person; assay type: in vivo, mice; details: for Mortality rate (%) / Survival rate (%): tenth day
Description: The tested medicament was glutaryl histamine in doses of 15, 30 and 45 mg/kg. Solutions of the tested medicament for oral administration were prepared ex tempore. Ampicillin (in intravenous administration) was used as a therapeutic preparation since this substance was the most experimentally studied antibiotic approved in clinical practice many years ago.
Staphylococcus aureus (mouse-adapted strain 10) was used as an infectious agent. Mice were infected intravenously.
Firstly, there was determined a lethal dose (LD100) of staphylococcus when intravenously administered to this line of mice with a certain weight. Fatal cases among mice were registered every day for ten days. The lethal dose was 3×10^8 CFU/mouse. […] For this purpose, mice were housed into cages (10 animals per cage) and infected with a lethal dose of staphylococcus. One hour later, each mouse was intravenously administered ampicillin in doses of 10, 20, 30, 40, and 50 mg/kg. A group of mice infected with a lethal dose of staphylococcus without the treatment was considered as a control group. Fatal cases among mice were registered every day for ten days.
The next step of the experiment was to study an effect of combined administration of glutaryl histamine with ampicillin on a model of staphylococcal sepsis in mice.
as §1
Glutaryl histamine was administered orally in the corresponding doses to mice of groups 3, 4, 5, 6, 7, and 8 for 5 days. Five day after, all groups of mice were intravenously administered 0.2 ml of Staphylococcus aureus in the lethal dose. One hour after infection, mice of groups 2, 6, 7 and 8 were […] administered 0.2 ml of ampicillin in a dose of 20 mg/kg. After infection and administration of ampicillin, mice of groups 3-8 were administered glutaryl histamine for additional 5 days. During the experiment, the animals were observed every day, and fatal cases were registered.

[3] = day 1, glutaryl histamine 15 mg/kg
[4] = day 1, glutaryl histamine 30 mg/kg
[5] = day 1, glutaryl histamine 45 mg/kg
[6] = day 2, glutaryl histamine 15 mg/kg
[7] = day 2, glutaryl histamine 30 mg/kg
[8] = day 2, glutaryl histamine 45 mg/kg
[9] = day 3, glutaryl histamine 15 mg/kg
[10] = day 3, glutaryl histamine 30 mg/kg
[11] = day 3, glutaryl histamine 45 mg/kg
[12] = day 4, glutaryl histamine 15 mg/kg
[13] = day 4, glutaryl histamine 30 mg/kg
[14] = day 4, glutaryl histamine 45 mg/kg
[15] = day 5, glutaryl histamine 15 mg/kg
[16] = day 5, glutaryl histamine 30 mg/kg
[17] = day 5, glutaryl histamine 45 mg/kg
[18] = day 6, glutaryl histamine 15 mg/kg
[19] = day 6, glutaryl histamine 30 mg/kg
[20] = day 6, glutaryl histamine 45 mg/kg
[21] = day 7, glutaryl histamine 15 mg/kg
[22] = day 7, glutaryl histamine 30 mg/kg
[23] = day 7, glutaryl histamine 45 mg/kg
[24] = day 8, glutaryl histamine 15 mg/kg
[25] = day 8, glutaryl histamine 30 mg/kg
[26] = day 8, glutaryl histamine 45 mg/kg
[27] = day 9, glutaryl histamine 15 mg/kg
[28] = day 9, glutaryl histamine 30 mg/kg
[29] = day 9, glutaryl histamine 45 mg/kg
[30] = day 10, glutaryl histamine 15 mg/kg
[31] = day 10, glutaryl histamine 30 mg/kg
[32] = day 10, glutaryl histamine 45 mg/kg

O=C(O)CCCC(=O)NCCc1c[nH]cn1 [glutaryl histamine]
died/survived animals [1, 3]: 0/10 | died/survived animals [1, 4]: 0/10 | died/survived animals [1, 5]: 0/10 | died/survived animals [1, 6]: 0/10 | died/survived animals [1, 7]: 0/10 | died/survived animals [1, 8]: 1/9 | died/survived animals [1, 9]: 0/10 | died/survived animals [1, 10]: 0/10 | died/survived animals [1, 11]: 1/9 | died/survived animals [1, 12]: 1/9 | died/survived animals [1, 13]: 1/9 | died/survived animals [1, 14]: 3/7 | died/survived animals [1, 15]: 2/8 | died/survived animals [1, 16]: 3/7 | died/survived animals [1, 17]: 5/5 | died/survived animals [1, 18]: 5/5 | died/survived animals [1, 19]: 6/4 | died/survived animals [1, 20]: 7/3 | died/survived animals [1, 21]: 6/4 | died/survived animals [1, 22]: 7/3 | died/survived animals [1, 23]: 8/2 | died/survived animals [1, 24]: 8/2 | died/survived animals [1, 25]: 7/3 | died/survived animals [1, 26]: 9/1 | died/survived animals [1, 27]: 8/2 | died/survived animals [1, 28]: 8/2 | died/survived animals [1, 29]: 9/1 | died/survived animals [1, 30]: 8/2 | died/survived animals [1, 31]: 8/2 | died/survived animals [1, 32]: 9/1 | Mortality rate (%) ([1]; glutaryl histamine 15 mg/kg): 80% | Survival rate (%) ([1]; glutaryl histamine 15 mg/kg): 20% | Mortality rate (%) ([1]; glutaryl histamine 30 mg/kg): 80% | Survival rate (%) ([1]; glutaryl histamine 30 mg/kg): 20% | Mortality rate (%) ([1]; glutaryl histamine 45 mg/kg): 90% | Survival rate (%) ([1]; glutaryl histamine 45 mg/kg): 10% | died/survived animals [2, 3]: 0/10 | died/survived animals [2, 4]: 0/10 | died/survived animals [2, 5]: 0/10 | died/survived animals [2, 6]: 0/10 | died/survived animals [2, 7]: 0/10 | died/survived animals [2, 8]: 0/10 | died/survived animals [2, 9]: 0/10 | died/survived animals [2, 10]: 0/10 | died/survived animals [2, 11]: 1/9 | died/survived animals [2, 12]: 1/9 | died/survived animals [2, 13]: 1/9 | died/survived animals [2, 14]: 1/9 | died/survived animals [2, 15]: 2/8 | died/survived animals [2, 16]: 2/8 | died/survived animals [2, 17]: 3/7 | died/survived animals [2, 18]: 4/6 | died/survived animals [2, 19]: 3/7 | died/survived animals [2, 20]: 4/6 | died/survived animals [2, 21]: 5/5 | died/survived animals [2, 22]: 4/6 | died/survived animals [2, 23]: 5/5 | died/survived animals [2, 24]: 6/4 | died/survived animals [2, 25]: 6/4 | died/survived animals [2, 26]: 6/4 | died/survived animals [2, 27]: 6/4 | died/survived animals [2, 28]: 7/3 | died/survived animals [2, 29]: 7/3 | died/survived animals [2, 30]: 7/3 | died/survived animals [2, 31]: 7/3 | died/survived animals [2, 32]: 8/2 | Mortality rate (%) ([2]; glutaryl histamine 15 mg/kg): 70% | Survival rate (%) ([2]; glutaryl histamine 15 mg/kg): 30% | Mortality rate (%) ([2]; glutaryl histamine 30 mg/kg): 70% | Survival rate (%) ([2]; glutaryl histamine 30 mg/kg): 30% | Mortality rate (%) ([2]; glutaryl histamine 45 mg/kg): 80% | Survival rate (%) ([2]; glutaryl histamine 45 mg/kg): 20%

CC1(C)S[C@@H]2[C@H](NC(=O)[C@H](N)c3ccccc3)C(=O)N2[C@H]1C(=O)O [ampicillin]
ED50 ([2]; Staphylococcus aureus, iv, read-out: ED50 (50% effective dose)): 17.3 mg/kg | Mortality rate (%) ([2]; ampicillin 20 mg/kg): 50% | Survival rate (%) ([2]; ampicillin 20 mg/kg): 50% | died/survived animals ([2]; day 1, ampicillin 20 mg/kg): 0/10 | died/survived animals ([2]; day 2, ampicillin 20 mg/kg): 0/10 | died/survived animals ([2]; day 3, ampicillin 20 mg/kg): 0/10 | died/survived animals ([2]; day 4, ampicillin 20 mg/kg): 1/9 | died/survived animals ([2]; day 5, ampicillin 20 mg/kg): 2/8 | died/survived animals ([2]; day 6, ampicillin 20 mg/kg): 3/7 | died/survived animals ([2]; day 7, ampicillin 20 mg/kg): 4/6 | died/survived animals ([2]; day 8, ampicillin 20 mg/kg): 4/6 | died/survived animals ([2]; day 9, ampicillin 20 mg/kg): 5/5 | died/survived animals ([2]; day 10, ampicillin 20 mg/kg): 5/5

— patent US20170143674A1, “Use of Glutaryl Histamine for the Treatment of Respiratory Tract Diseases” (LTD "VALENTA-INTELLEKT", priority 2011, published 2017)
